Where “and” joins values, the source holds several entries; their conditions need not be identical. Identical values can stand only once. Entries after “also recorded” stand apart in the source; their conditions may differ. Like-named read-outs stand apart in the source and are kept apart here.
Assays:
[1] = target: T1, α-glucosidase (Saccharomyces cerevisiae, UniProt P38158); test: Inactivation kinetics, time course of α-glucosidase activity; type: biochemical; conditions: enzyme 0.075 µM, pNPG 2 mM
T1 construct: purchased Merck KGaA, Darmstadt, Germany
T1 sequence (P38158 whole entry): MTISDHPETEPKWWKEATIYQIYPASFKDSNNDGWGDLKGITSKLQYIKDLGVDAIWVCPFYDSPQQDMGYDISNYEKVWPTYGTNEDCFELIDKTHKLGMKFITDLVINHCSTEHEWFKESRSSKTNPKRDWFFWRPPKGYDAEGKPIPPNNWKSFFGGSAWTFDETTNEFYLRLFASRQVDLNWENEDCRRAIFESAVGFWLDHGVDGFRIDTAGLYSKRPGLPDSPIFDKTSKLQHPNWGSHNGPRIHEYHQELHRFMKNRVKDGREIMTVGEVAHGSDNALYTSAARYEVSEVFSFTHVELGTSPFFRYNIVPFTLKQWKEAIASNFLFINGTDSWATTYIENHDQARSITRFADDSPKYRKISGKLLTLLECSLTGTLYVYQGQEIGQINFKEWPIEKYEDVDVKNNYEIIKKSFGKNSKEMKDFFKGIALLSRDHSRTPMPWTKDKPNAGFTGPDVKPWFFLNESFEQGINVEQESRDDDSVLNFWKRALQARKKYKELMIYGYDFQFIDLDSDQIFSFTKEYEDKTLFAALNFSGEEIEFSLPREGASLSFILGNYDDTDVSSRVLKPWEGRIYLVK
Description: The enzyme and substrate concentrations were 0.075 µM and 2 mM, respectively.

[2] = test system: α-glucosidase; conditions: cited from earlier work
[3] = target: T1, α-glucosidase; test: Kinetic analysis of yeast α-glucosidase inhibition (Michaelis–Menten and Lineweaver–Burk plots); type: biochemical; conditions: for Inhibitor Potency (relative to acarbose): from Ki values; for Vmax of α-glucosidase: converted using the Lambert–Beer relationship
Description: The type of enzyme inhibition exerted by inhibitors was evaluated from kinetic studies using different substrate concentrations (0.25–2.5 mM pNPG) applying Michaelis–Menten and Lineweaver–Burk plots. Inhibition constants (Ki) were determined by plots of the Y-intercept of the Lineweaver–Burk plot vs. inhibitor concentration.

[4] = target: T1, α-glucosidase; test: Yeast α-glucosidase inhibitory assay (pNPG substrate, absorbance 405 nm); type: biochemical; conditions: for IC50: 2 mM pNPG
Description: α-Glucosidase inhibitory activity was determined according to a previous method. Briefly, 0.1 mM PBS (pH 6.8) was used to dissolve α-glucosidase and pNPG. In detail, 80 μL of PBS or 80 μL of test sample were added to 96-well plates. Successively, 20 μL of enzyme (0.025–0.125 µM) were added to each well. Magnolol (10–100 μM) and luteolin (5–50 μM) were prepared in DMSO (<1% v/v). […] Each sample was incubated with α-glucosidase for 10 min at 37 °C. The reaction started by adding 200 μL of pNPG (2 mM). The absorbance values were detected at 405 nm for 60 min, using a PerkinElmer Victor Nivo microplate spectrophotometer (Waltham, MA, USA). The α-glucosidase activity in the absence of inhibitors was defined as 100%. The half-maximal inhibitory concentration (IC50) was estimated by plot of relative enzymatic activity vs. inhibitor concentration.

[5] = target: T1, α-glucosidase; test: Fluorescence quenching analysis and thermodynamic parameters; type: binding; conditions: for Ksv (Stern–Volmer quenching constant): pH 6.8, α-glucosidase 0.35 µM; for Kd: read-out: Ka (binding constant) (converted)
Description: The interaction of inhibitors with α-glucosidase was studied using the fluorescence quenching method. […] Measurements were made in the emission range of 300–450 nm, with an excitation of 280 nm, after 10 min of stabilization. The fluorescent spectra of α-glucosidase (0.35 µM) and each inhibitor (0–1.0 µM) were carried out at three different temperatures (298, 304, and 310 K) and the bandwidths were set at 5 nm for both emission and excitation slits. For each sample, three fluorescence spectra were acquired, and the blank was subtracted. The compound quenching mechanism was assessed using the Stern–Volmer equation: F0 / F = 1 + Ksv[Q] = 1 + Kq^.τo[Q], where F0 and F are the fluorescence measure in absence and in presence of different concentrations of quencher, respectively; Ksv is the Stern–Volmer quenching constant; Kq is the coefficient of quencher rate coefficient; τ0 is the life time of the excited state; and [Q] is the concentration of the quencher.
Further elaboration of the equilibrium within the free and bound molecules can be achieved through the analysis of the fluorescence emission data utilizing the following equation: log (F0 − F) / F = log Ka + n log [Q], which obtains the binding constant (Ka) and the number of binding sites per protein (n) for the enzyme-inhibitor system.
Thermodynamic spontaneity is an important factor in the study of protein-ligand interaction. A system tends not only toward a lower energy state (enthalpy, ΔH), but also according to a state of disorder (entropy, ΔS). Thermodynamic parameters were obtained according to the Van ’t Hoff equation and the plot of “log Ka vs. 1/T”. The trade-off between enthalpy (ΔH°) and entropy (ΔS°) is used to obtain the standard free energy variation (ΔG°).

[6] = target: T1, α-glucosidase; design: method as in PMID 24333230; conditions: ref 17; cited from earlier work
[7] = target: T1, α-glucosidase; test: Synchronous fluorescence spectra; conditions: pH 6.8, 298 K
From the text: The application of this method allows the identification of conformational changes in proteins according to the spectroscopic behavior of the tyrosine and tryptophan residues. Synchronous fluorescence spectra were collected in the emission range of 260–320 nm. The difference between excitation and emission wavelength (Δλ) was established at 15 nm (tyrosine residues) or at 60 nm (tryptophan residues).

[8] = 298–310 K, Van ’t Hoff equation

O=c1cc(-c2ccc(O)c(O)c2)oc2cc(O)cc(O)c12 [Luteolin, 3’,4’,5,7-tetrahydroxyflavone]
Inactivation rate constant K ([1]; inhibitor 5 µM): 2.67 ± 0.08 10^−4 s^−1 | Inactivation rate constant K ([1]; inhibitor 10 µM): 2.78 ± 0.08 10^−4 s^−1 | Inactivation rate constant K ([1]; inhibitor 25 µM): 2.81 ± 0.03 10^−4 s^−1 | Inactivation rate constant K ([1]; inhibitor 40 µM): 2.82 ± 0.04 10^−4 s^−1 | Inactivation rate constant K ([1]; inhibitor 50 µM): 2.84 ± 0.01 10^−4 s^−1 | times more potent than acarbose ([2]; first of 'respectively', from literature IC50 values ref 18): 13 times | Ki ([2]; ref 4): 29 µM and 38 µM | IC50 ([2]; ref 6): 46 µM | Ki ([2]; ref 17): 140 µM | IC50 ([2]; ref 18): 13.1 µM | times more potent than acarbose ([2]; second of 'respectively', from literature IC50 values ref 6): 17 times | Ki’ (binding constant of the inhibitor to the substrate-enzyme complex) ([3]; 0.075 µM α-glucosidase): 35.4 µM | Ki ([3]; 0.075 µM α-glucosidase, secondary plots of slope versus [I], read-out: Ki (binding constant of the inhibitor to the free enzyme)): 34.2 µM | type of inhibition ([3]; Michaelis–Menten and Lineweaver–Burk plots): non-competitive inhibition; also recorded: non-competitive reversible inhibitor | Inhibitor Potency (relative to acarbose) [3]: 10.4 | Inhibitor Potency (relative to acarbose) ([3]; listed as luteolin): ≥ 10 | Kcat of α-glucosidase ([3]; inhibitor 5 µM, 0.075 µM α-glucosidase): 2.95 ± 0.12 s⁻¹ | Kcat of α-glucosidase ([3]; inhibitor 10 µM, 0.075 µM α-glucosidase): 2.65 ± 0.13 s⁻¹ | Kcat of α-glucosidase ([3]; inhibitor 25 µM, 0.075 µM α-glucosidase): 2.02 ± 0.12 s⁻¹ | Vmax of α-glucosidase ([3]; inhibitor 25 µM): 9.10 ± 0.50 µM/min | Kcat of α-glucosidase ([3]; inhibitor 40 µM, 0.075 µM α-glucosidase): 1.78 ± 0.12 s⁻¹ | Vmax of α-glucosidase ([3]; inhibitor 40 µM): 8.00 ± 0.50 µM/min | Kcat of α-glucosidase ([3]; inhibitor 50 µM, 0.075 µM α-glucosidase): 1.41 ± 0.11 s⁻¹ | Vmax of α-glucosidase ([3]; inhibitor 50 µM): 6.34 ± 0.60 µM/min | reversibility of inhibition ([4]; plots v vs. [α-glucosidase] at different inhibitor concentrations): reversible inhibition | IC50 ([4]; α-glucosidase 0.025 × 10^−6 M, read-out: IC50): 14 ± 10.5 µM | IC50 ([4]; α-glucosidase 0.05 × 10^−6 M, read-out: IC50): 21.6 ± 11.7 µM | IC50 ([4]; α-glucosidase 0.05 × 10^−6 M, read-out: −Log IC50 (converted)): 21.9 µM | IC50 ([4]; α-glucosidase 0.075 × 10^−6 M, read-out: IC50): 32.3 ± 11.7 µM | IC50 ([4]; α-glucosidase 0.125 × 10^−6 M, read-out: IC50): 59.4 ± 12.3 µM | Kq (bimolecular quenching constant) ([5]; 298 K): 23.22 ± 0.159 10^13 M^−1 s^−1 | n (number of binding sites) ([5]; 298 K): 1.10 | ΔG° (free energy change) ([5]; 298 K, Van ’t Hoff equation): -0.547 kcal/mol | Ksv (Stern–Volmer quenching constant) ([5]; 298 K): 23.22 ± 0.16 10^5 M^−1 | Kd ([5]; 298 K): 0.402 µM | ΔH° (enthalpy change) [5, 8]: -2.18 kcal/mol | ∆S° (entropy change) [5, 8]: −22.95 J mol^−1K^−1 | Kq (bimolecular quenching constant) ([5]; 304 K): 21.73 ± 0.141 10^13 M^−1 s^−1 | n (number of binding sites) ([5]; 304 K): 1.28 | ΔG° (free energy change) ([5]; 304 K, Van ’t Hoff equation): -0.514 kcal/mol | Ksv (Stern–Volmer quenching constant) ([5]; 304 K): 21.73 ± 0.14 10^5 M^−1 | Kd ([5]; 304 K): 0.417 µM | Kq (bimolecular quenching constant) ([5]; 310 K): 18.68 ± 0.120 10^13 M^−1 s^−1 | n (number of binding sites) ([5]; 310 K): 1.34 | ΔG° (free energy change) ([5]; 310 K, Van ’t Hoff equation): -0.48 kcal/mol | Ksv (Stern–Volmer quenching constant) ([5]; 310 K): 18.68 ± 0.12 10^5 M^−1 | Kd ([5]; 310 K): 0.464 µM | fluorescence quenching mechanism ([5]; based on Ksv and Kq values): static quenching mechanism | number of binding sites ([5]; no temperature stated): approximately 1 | distance between inhibitor and α-glucosidase [6]: 4.56 nm | shift of synchronous fluorescence maximum ([7]; ∆λ = 15 nm (tyrosine residues)): blue shift from 286 to 283 | shift of synchronous fluorescence maximum ([7]; ∆λ = 60 nm (tryptophan residues)): no modification

From article PMC8880268, “Magnolol and Luteolin Inhibition of α-Glucosidase Activity: Kinetics and Type of Interaction Detected by In Vitro and In Silico Studies” (Pharmaceuticals, 2022)
